# In article PMC2149952 (British Journal of Cancer, 1998):
# Like-named read-outs stand apart in the source and are kept apart here.
# Assays:
# [1] = system: drug-resistant cell lines; set-up: method as in Harrison et al, 1991; settings: ref Harrison et al, 1991, cited from earlier work
# malignancy = test: Phase I study: tumour response (UICC criteria); format: in vivo; settings: 16 patients, all dose levels
# Description: British Joumal of Cancer (1998) 77(5), 808-81 1 ? […] Penclomedine administration by 1-h intravenous infusion on 5 consecutive days was repeated 3 weekly in the absence of dose-limiting toxicity (DLT) or disease progression. Five dose levels were investigated (22.5-340 mg m-2 day-'). Eight men and eight women were entered, median age 59 years (range 39-73 years), with good performance status (ECOG 0/1) in 11 patients. A total of 13 out of 16 patients had received previous chemotherapy. […] Neurotoxicity developed during the 1-h infusion and persisted for a variable period (maximum 5 h) after infusion. […] Penclomedine pharmacokinetic studies confirmed preclinical evidence of extensive apparent distribution (931 m-2) and rapid clearance (41 1 h-1m-2). […] Therefore, an experimental formulation of penclomedine as a 10% oil in water emulsion was developed for intravenous (i.v.) administration. […] Single treatments were effective when administered intra- venously, but the dose used in a rapid bolus push was limited by acute lethality. […] Penclomedine has also been tested in drug-resistant cell lines (doxorubicin, vincristine, cisplatinum, methotrexate, Ara-C and 5-FU) including the multidrug-resistant (MDR) phenotype. […] Preclinical toxicology studies were performed in mice, rats, and dogs. […]
# [2] = Plasma pharmacokinetics in phase I patients (HPLC, two-compartment model); format: in vivo
# Description: British Joumal of Cancer (1998) 77(5), 808-81 1 ? […] Penclomedine administration by 1-h intravenous infusion on 5 consecutive days was repeated 3 weekly in the absence of dose-limiting toxicity (DLT) or disease progression. Five dose levels were investigated (22.5-340 mg m-2 day-'). Eight men and eight women were entered, median age 59 years (range 39-73 years), with good performance status (ECOG 0/1) in 11 patients. A total of 13 out of 16 patients had received previous chemotherapy. […] Neurotoxicity developed during the 1-h infusion and persisted for a variable period (maximum 5 h) after infusion. […] Penclomedine pharmacokinetic studies confirmed preclinical evidence of extensive apparent distribution (931 m-2) and rapid clearance (41 1 h-1m-2). […] Therefore, an experimental formulation of penclomedine as a 10% oil in water emulsion was developed for intravenous (i.v.) administration. […] Single treatments were effective when administered intra- venously, but the dose used in a rapid bolus push was limited by acute lethality. […] Penclomedine has also been tested in drug-resistant cell lines (doxorubicin, vincristine, cisplatinum, methotrexate, Ara-C and 5-FU) including the multidrug-resistant (MDR) phenotype. […] Preclinical toxicology studies were performed in mice, rats, and dogs. In mice, the maximum tolerated dose (MTD) was 150 mg kg-' (450 mg m-2) as a single i.v. dose and 80 mg kg-' day-' (240 mg m-2 day-'; total dose 1200 mg m-2) on a daily x 5 schedule. […] 808 Phase I trial of penclomedine 809 The aims of this phase I study were: (a) to determine the MTD of penclomedine when administered i.v. once daily for 5 days every 21 days; (b) to identify the toxicity profile of penclomedine and to determine whether this is predictable, tolerable and reversible, and to define dose-limiting toxicities in patients; (c) to determine the pharmacokinetics of penclomedine at different dose levels; (d) to define a safe dose for subsequent phase II studies of anti-tumour activity; and (e) to observe and record any possible therapeutic effectiveness of penclomedine. MATERIALS AND METHODS This was an open non-randomized study with dose escalation that continued until the dose-limiting toxicity was defined. A minimum of three patients were treated at each dose level. […] All patients were required to give written informed consent. Before commencing the study ethical approval was obtained from the Medicine and Clinical Oncology Research Ethics Sub-Committee of Lothian Health Board (ref. MCO/ 105/92) and the study was conducted according to the Helsinki Declaration. This trial was conducted under the auspices of the Cancer Research Campaign Phase I/II Clinical Trials Committee. […] Adequate bone marrow, hepatic and renal function was required (WBC > 3 x 109 1-1, platelet count > 100 x 109 1-1, serum creatinine < 120 gmmol 1-l, bilirubin < 30 gmol 1-1, and other liver function tests within twice the upper limit of normal (unless known to be related to liver metastases)). Patients were deemed ineligible in the event of pregnancy or lactation, previous chemotherapy or radiotherapy within the last 4 weeks (6 weeks for nitrosoureas or mitomycin C), the presence of another non-malignant disease that in the opinion of the investi- gator was incompatible with this protocol, concurrent administra- tion of another investigational drug, or cytotoxic, hormonal or biological therapy. Patients with brain metastases or primary brain tumours were excluded and also patients with epilepsy or chronic neurological disorders that might interfere with the assessment of neurological toxicity. Penclomedine was formulated as a de novo emulsion (in 100 ml: soybean oil, […]; lecithin, 30 mg; glycerin 20 mg and water for injection) and stored as intact vials under refrigeration (2-8?C). Penclomedine emulsions were diluted up to 1:10 using 5% dextrose solution. […] Penclomedine was supplied by the NCI DCT under the special foreign exemption mechanism established with the FDA. […]
# [3] = set-up: method as in Reid et al, 1992; settings: ref Reid et al, 1992; cited from earlier work
# cerebellum = system: cerebellum; set-up: method as in O'Reilly et al, 1996a; settings: ref O'Reilly et al, 1996a, cited from earlier work
# [4] = cited from earlier work
# [5] = set-up: method as in Reid et al, 1992; settings: ref Reid et al, 1992, cited from earlier work
# [6] = set-up: method as in O'Reilly et al, 1996b; settings: ref O'Reilly et al, 1996b; cited from earlier work
# [7] = system: human MX-1 mammary tumour xenograft; settings: cited from earlier work
# [8] = system: human H82 small cell lung carcinoma xenografts; set-up: method as in Harrison 1991; settings: oral 445 mg kg-1 day-1; ref Harrison 1991; cited from earlier work
# [9] = in vivo
# Description: British Joumal of Cancer (1998) 77(5), 808-81 1 ? […] Penclomedine administration by 1-h intravenous infusion on 5 consecutive days was repeated 3 weekly in the absence of dose-limiting toxicity (DLT) or disease progression. Five dose levels were investigated (22.5-340 mg m-2 day-'). Eight men and eight women were entered, median age 59 years (range 39-73 years), with good performance status (ECOG 0/1) in 11 patients. A total of 13 out of 16 patients had received previous chemotherapy. […] Neurotoxicity developed during the 1-h infusion and persisted for a variable period (maximum 5 h) after infusion. […] Penclomedine pharmacokinetic studies confirmed preclinical evidence of extensive apparent distribution (931 m-2) and rapid clearance (41 1 h-1m-2). […] Therefore, an experimental formulation of penclomedine as a 10% oil in water emulsion was developed for intravenous (i.v.) administration. […] Single treatments were effective when administered intra- venously, but the dose used in a rapid bolus push was limited by acute lethality. […] Penclomedine has also been tested in drug-resistant cell lines (doxorubicin, vincristine, cisplatinum, methotrexate, Ara-C and 5-FU) including the multidrug-resistant (MDR) phenotype. […] Preclinical toxicology studies were performed in mice, rats, and dogs. In mice, the maximum tolerated dose (MTD) was 150 mg kg-' (450 mg m-2) as a single i.v. dose and 80 mg kg-' day-' (240 mg m-2 day-'; total dose 1200 mg m-2) on a daily x 5 schedule. […] 808 Phase I trial of penclomedine 809 The aims of this phase I study were: (a) to determine the MTD of penclomedine when administered i.v. once daily for 5 days every 21 days; (b) to identify the toxicity profile of penclomedine and to determine whether this is predictable, tolerable and reversible, and to define dose-limiting toxicities in patients; (c) to determine the pharmacokinetics of penclomedine at different dose levels; (d) to define a safe dose for subsequent phase II studies of anti-tumour activity; and (e) to observe and record any possible therapeutic effectiveness of penclomedine. MATERIALS AND METHODS This was an open non-randomized study with dose escalation that continued until the dose-limiting toxicity was defined. A minimum of three patients were treated at each dose level. […] All patients were required to give written informed consent. Before commencing the study ethical approval was obtained from the Medicine and Clinical Oncology Research Ethics Sub-Committee of Lothian Health Board (ref. MCO/ 105/92) and the study was conducted according to the Helsinki Declaration. This trial was conducted under the auspices of the Cancer Research Campaign Phase I/II Clinical Trials Committee. […]
# [10] = set-up: method as in personal communication, AC Smith, NCI; settings: mice, ref personal communication, AC Smith, NCI, cited from earlier work
# [11] = system: mouse CD8F, mammary carcinoma; set-up: method as in Plowman et al, 1989; settings: ref Plowman et al, 1989; cited from earlier work
# [12] = system: subrenal capsule xenograft of the human MX-1 mammary carcinoma; set-up: method as in Harrison 1991; settings: oral 300 mg kg-1 day-1 on days 13, 17 and 21; for 40 days after the last treatment; ref Harrison 1991; cited from earlier work
# [13] = set-up: method as in Prankerd et al, 1989; settings: ref Prankerd et al, 1989; cited from earlier work
# [14] = mean of 10 patients, 150-340 mg m-2 day-1, initial 24 h
compound,measurement,setting,value
"COc1nc(C(Cl)(Cl)Cl)c(Cl)c(OC)c1Cl [penclomedine, 3,5-Dichloro-2,4-dimethoxy-6-(trichloromethyl)pyridine]",activity in resistant versus wild-type cell lines,"[1]; lines resistant to doxorubicin, vincristine, cisplatinum, methotrexate, Ara-C and 5-FU, including MDR phenotype",equivalent activity
same,sensitivity of AMSA-resistant line,[1],collaterally sensitive
same,sensitivity of L-PAM-resistant line,[1],resistant
same,anti-tumour responses,malignancy,no anti-tumour responses were documented
same,dose dependence of total body clearance,[2]; 150-340 mg m-2 day-1,did not vary with dose
same,metabolites in plasma of patients,"[2]; human, in vivo",not detected
same,apparent distribution volume (mean Vc + Vp),"[2]; human, in vivo, iv",93 l m-2
same,half-life,"[2]; human, in vivo, patients, read-out: apparent elimination phase half-life (t1/2 beta) (converted)",2.4 h
same,half-life,"[2]; human, in vivo, patients, read-out: initial distribution phase half-life (t1/2 alpha)",0.2 h
same,"Cld (distributional clearance), mean",[2]; [14],43 l h-1 m-2
same,"Clt (total body clearance), mean",[2]; [14],41 l h-1 m-2
same,clearance,"[2]; patients, i.v. infusion, abstract",41 l h-1 m-2
same,in vitro metabolism,[3],subject to metabolism under both oxidative and reductive conditions
same,cerebellar finding in preclinical models,cerebellum; after intraperitoneal administration,Purkinje cell loss
same,single dose producing visible pathological changes in the cerebellum,"cerebellum; rats, intraperitoneal injection, may be irreversible",≥ 150 mg kg-1
same,toxicity at the MTD,"[4]; beagle dogs, 90 mg kg-1, ref Dixit et al, 1992",reversible myelosuppression
same,plasma penclomedine concentrations,"[4]; beagle dogs, 90 mg kg-1 dose level, not associated with neurotoxicity, ref Dixit et al, 1992",6 to 9 µg/mL
same,maximum tolerated dose (MTD),"[4]; beagle dogs, single 5-h infusion, ref Dixit et al, 1992",90 mg/kg
same,toxicity at higher dosages,"[4]; dog, in vivo",dose-limiting neurotoxicity
same,metabolism of radiolabelled penclomedine,[5]; after both i.v. and oral administration,extensive
same,clearance,"[5]; mice, parent drug",114 ml min-m m-2
same,half-life,"[5]; mice, parent drug",1.15 h
same,volume of distribution,"[5]; mice, parent drug",4.8 l m-2
same,oral bioavailability of the parent compound,[5]; mice,2%
same,chemical species found in rat brain,[6],predominant chemical species
same,tumour-free survivors,"[7]; advanced stage MX-1 mammary carcinoma, oral 135 mg kg-1 day-1 for 5 days, oil in water emulsion, ref Harrison et al, 1991",ten out of ten
same,anti-tumour activity,"[7]; human MX-1 mammary tumour xenograft, ref Plowman et al, 1989",good activity
same,complete regressions,[8],six out of ten
same,partial regressions,[8],four out of ten
same,persistence of neurotoxicity after infusion (maximum),"[9]; both, human",≤ 5 h
same,dose at which dose-limiting toxicity occurred,"[9]; both, human, iv, 5 days",340 mg m-2 day-1
same,"antiproliferative toxicities (myelosuppression, mucositis)",[9],No antiproliferative toxicities were noted
same,dose-limiting toxicity (DLT),[9]; iv,Neurotoxicity (cerebellar ataxia and dizziness)
same,dose-limiting toxicity,[10]; daily x 5 schedule,bone marrow suppression
same,"maximum tolerated dose (MTD), total dose",[10]; daily x 5 schedule,1200 mg m-2
same,dose-limiting toxicity,[10]; single dose schedule,neurological
same,anti-tumour activity,[11],good activity
same,tumour regression,[12],complete regression of all tumours
same,solubility in non-polar solvents and lipids,[13],soluble
same,solubility in water,[13],poorly soluble
